One block for each compound: values may come before it. Non-standard residues stand in square brackets, D forms with d. No end group written: not given here.
Key:
[1] = system: acute CYP-induced cystitis in female Sprague-Dawley rats; assay: CYP-induced acute cystitis, intravenous treatment, visceral pain; assay type: in vivo, rat; conditions: XG-102 2 mg/kg i.v., ibuprofen 10 mg/kg i.v.; 24 h post-CYP
Procedure: (§1) This preclinical model is well-used to test therapeutic approaches for the treatment of interstitial cystitis/painful bladder syndrome (IC/PBS).
(§2) Animals were acclimatized to the laboratory conditions for at least 3 days before the start of any experiments. The animals were allocated to the following four experimental groups (n=10 animals per group):
Control rats received physiological saline under the same experimental conditions as CYP (final volume of 5 mL/kg, i.p.).
(§3) On the day of each experiment, weight of rats was recorded.
Standardized conditions including fixed time-of-day (a.m. to minimize the potential circadian variations in the behaviours responses) and single-experimenter testing of all animals were applied to minimize variability behavior-based pain testing. Visceral pain including allodynia and hyperalgesia was evaluated by applying to the lower abdomen, close to the urinary bladder, a set of 8 calibrated von Frey filaments of increasing forces (1, 2, 4, 6, 8, 10, 26 and 60 g) with an interstimulus interval of 5 seconds. Prior testing, the abdominal area designed for mechanical stimulation of each animal was shaved. Animals were then placed on a raised wire mesh floor under individual transparent Plexiglas box and acclimatized for at least 30 minutes before starting the von Frey test. […]

[2] = system: acute CYP-induced cystitis in female Sprague-Dawley rats; assay: CYP-induced acute cystitis, intravesical treatment; assay type: in vivo, rat; conditions: 50 mg/mL i.ves.; 24 h post-CYP
Procedure: as §1, §2
To induce acute cystitis, a single i.p. injection of CYP at a dose of 150 mg/kg in a final volume of 5 mL/kg was performed. Control rats received physiological saline under the same experimental conditions as CYP (final volume of 5 mL/kg, i.p.).
as §3
Standardized conditions including fixed time-of-day (a.m. to minimize the potential circadian variations in the behaviours responses) and single-experimenter testing of all animals were applied to minimize variability behavior-based pain testing. Visceral pain including allodynia and hyperalgesia was evaluated by applying to the lower abdomen, close to the urinary bladder, a set of 8 calibrated von Frey filaments of increasing forces (1, 2, 4, 6, 8, 10, 26 and 60 g) with an interstimulus interval of 5 seconds. Prior testing, the abdominal area designed for mechanical stimulation of each animal was shaved. Animals were then placed on a raised wire mesh floor under individual transparent Plexiglas box and acclimatized for at least 30 minutes before starting the von Frey test. Filaments were then applied 1-2 seconds through the mesh floor with enough strength to cause the filament to slightly bend. Each filament was tested 3 times. Care was taken to stimulate different areas within the lower abdominal region in the vicinity of the urinary bladder to avoid desensitization.
Urinary bladders were rapidly collected and cleaned from lipoid tissue. […] Finally, wall thickness was measured using a digital caliper by placing the bladder wall between the two outside jaws.

TC-3 cell cultures = assay: Cellular import of fluorescein labeled TAT and TAT-IB1(s) peptides; assay type: cell-based; conditions: 1 μM
Procedure: The ability of the L- and D-enantiomeric forms of TAT and TAT-IB1(s) peptides (“TAT-IB peptides”) to enter cells was evaluated. L-TAT, D-TAT, L-TAT-IB1(s), and D-TAT-IB1(s) peptides [SEQ ID NOs: 5, 6, 9 and 12, respectively] were labeled by N-terminal addition of a glycine residue conjugated to fluorescein. Labeled peptides (1 μM) were added to TC-3 cell cultures, which were maintained as described in Example 3. At predetermined times cells were washed with PBS and fixed for five minutes in ice-cold methanol-acetone (1:1) before being examined under a fluorescence microscope. Fluorescein-labeled BSA (1 μM, 12 moles/mole BSA) was used as a control.

TC-3 cells = assay: IL-1 induced pancreatic beta-cell death with peptides; assay type: cell-based; conditions: 1 μM single addition
Procedure: Inhibition of IL-1 induced pancreatic beta-cell death by the D-TAT-IB1(s) peptide was analyzed. TC-3 cells were incubated as described above for 30 minutes with one single addition of the indicated peptides (1 μM), then IL-1 (10 ng/ml) was added.
Apoptotic cells were then counted after two days of incubation with IL-1 by use of Propidium Iodide and Hoechst 33342 nuclear staining. A minimum of 1,000 cells were counted for each experiment. Standard Error of the Means (SEM) are indicated, n=5.
Long term inhibition of IL-1 P induced cell-death by the D-TAT-IB1 peptide was also analyzed. TC-3 cells were incubated as above for 30 minutes with one single addition of the indicated peptides (1 μM), then IL-1 (10 ng/ml) was added, followed by addition of the cytokine every two days. Apoptotic cells were then counted after 15 days of incubation with IL-1 by use of propidium iodide and Hoechst 33342 nuclear staining. […] A minimum of 1.000 cells were counted for each experiment.

[3] = system: AP-1 DNA binding complex in HeLa cell nuclear extracts; assay: AP-1 gel retardation assay; assay type: cell-based; conditions: TNF-alpha 5 ng/ml
JNK = conditions: JBDs; cited from earlier work
[4] = system: recombinant JNK1, JNK2 and JNK3; assay: Solid phase kinase assay, phosphorylation of c-Jun, ATF2 and Elk1; assay type: biochemical; conditions: dose response 0-25 μM
Procedure: (§4) The effects of the peptides on JNKs-mediated phosphorylation of their target transcription factors were investigated in vitro. Recombinant and non activated JNK1, JNK2 and JNK3 were produced using a TRANSCRIPTION AND TRANSLATION rabbit reticulocyte lysate kit (Promega) and used in solid phase kinase assays with c-jun, ATF2 and Elk1, either alone or fused to glutathione-S-transferase (GST), as substrates. Dose response studies were performed wherein L-TAT or L-TAT-IB1 (s) peptides (0-25 μM) were mixed with the recombinant JNK1, JNK2, or JNK3 kinases in reaction buffer (20 mM Tris-acetate, 1 mM EGTA, 10 mM p-nitrophenyl-phosphate (pNPP), 5 mM sodium pyrophosphate, 10 mM p-glycerophosphate, 1 mM dithiothreitol) for 20 minutes. The kinase reactions were then initiated by the addition of 10 mM MgCl2 and […] ^33P-gamma-dATP and 1 μg of either GST-Jun (aa 1-89), GST-AFT2 (aa 1-96) or GST-ELK1 (aa 307-428). GST-fusion proteins were purchased from Stratagene (La Jolla, Calif.).
(§5) Ten μL of glutathione-agarose beads were also added to the mixture. Reaction products were then separated by SDS-PAGE on a denaturing 10% polyacrylamide gel. […] The ability of D-TAT, D-TAT-IB1(s) and L-TAT-IB1(s) peptides (0-250 μM dosage study) to inhibit GST-Jun (aa 1-73) phosphorylation by recombinant JNK1, JNK2, and JNK3 by were analyzed as described above. […]

JNK3 = target: T1, JNK3 (Homo sapiens, UniProt P53779); assay: Solid phase kinase assay, JNK3 phosphorylation of Elk1; assay type: biochemical; conditions: 0-25 μM
T1 construct: host or cells: cell-free: rabbit reticulocyte lysate transcription/translation
T1 sequence (P53779 whole entry, species assumed): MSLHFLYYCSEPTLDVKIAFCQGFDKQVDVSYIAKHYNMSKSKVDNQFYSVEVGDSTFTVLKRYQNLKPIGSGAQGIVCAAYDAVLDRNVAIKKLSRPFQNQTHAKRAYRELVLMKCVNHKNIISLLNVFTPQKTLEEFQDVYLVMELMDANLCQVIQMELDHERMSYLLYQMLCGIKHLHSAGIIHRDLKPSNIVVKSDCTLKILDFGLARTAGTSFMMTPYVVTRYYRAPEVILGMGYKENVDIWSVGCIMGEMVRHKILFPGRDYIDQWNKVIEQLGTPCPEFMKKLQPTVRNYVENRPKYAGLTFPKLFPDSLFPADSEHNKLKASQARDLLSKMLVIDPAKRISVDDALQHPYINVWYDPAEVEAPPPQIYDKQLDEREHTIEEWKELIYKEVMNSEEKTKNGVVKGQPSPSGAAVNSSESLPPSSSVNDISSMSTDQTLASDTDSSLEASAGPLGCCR
Procedure: as §4, §5

[5] = system: JNKs from UV-light irradiated HeLa cells or IL-1 treated TC-3 cells; assay: c-Jun phosphorylation by activated JNKs pulled down with GST-Jun; assay type: biochemical; conditions: 25 μM
Procedure: The effects of the L-TAT or L-TAT-IB1(s) peptides as defined herein on JNKs activated by stressful stimuli were evaluated using GST-Jun to pull down JNKs from UV-light irradiated HeLa cells or IL-1 treated PTC cells. PTC cells were cultured as described above. HeLa cells were cultured in DMEM medium supplemented with 10% Fetal Calf Serum, 100 μg/mL Streptomycin, 100 units/ml Penicillin and 2 mM Glutamine. One hour prior to being used for cell extract preparation, PTC cells were activated with IL-1 as described above, whereas HeLa cells were activated by UV-light (20 J/m^2). Cell extracts were prepared from control, UV-light irradiated HeLa cells and IL-1 treated TC-3 cells by scraping the cell cultures in lysis buffer (20 mM Tris-acetate, 1 mM EGTA, 1% Triton X-100, 10 mM p-nitrophenyl-phosphate, 5 mM sodium pyrophosphate, 10 mMP-glycerophosphate, 1 mM dithiothreitol). Debris was removed by centrifugation for five minutes at 15,000 rpm in an SS-34 Beckman rotor. One-hundred μg extracts were incubated for one hour at room temperature with one μg GST-jun (amino acids 1-89) and 10 μL of glutathione-agarose beads (Sigma). Following four washes with the scraping buffer, the beads were resuspended in the same buffer supplemented with L-TAT or L-TAT-IB1(s) peptides (25 μM) for 20 minutes. […]

[6] = system: JNK mediated activation of c-Jun in HeLa cells; assay: GAL4-Jun luciferase reporter after MKK4/MKK7 co-transfection; assay type: cell-based; conditions: 1 μM
From the text: To determine whether the cell-permeable peptides as defined herein could block JNK signaling in vivo, we used a heterologous GAL4 system. HeLa cells, cultured as described above, were co-transfected with the 5×GAL-LUC reporter vector together with the GAL-Jun expression construct (Stratagene) comprising the activation domain of c-Jun (amino acids 1-89) linked to the GAL4 DNA-binding domain. Activation of JNK was achieved by the co-transfection of vectors expressing the directly upstream kinases MKK4 and MKK7 (see Whitmarsh et al., Science 285: 1573 (1999)). Briefly, 3×10^5 cells were transfected with the plasmids in 3.5-cm dishes using DOTAP (Boehringer Mannheim) following instructions from the manufacturer. For experiments involving GAL-Jun, 20 ng of the plasmid was transfected with 1 μg of the reporter plasmid pFR-Luc (Stratagene) and 0.5 μg of either MKK4 or MKK7 expressing plasmids. Three hours following transfection, cell media were changed and TAT and TAT-IB1(s) peptides (1 μM) were added. The luciferase activities were measured 16 hours later using the “Dual Reporter System” from Promega after normalization to protein content. […] Because HeLa cells express JNK1 and JNK2 isoforms but not JNK3, we transfected cells with JNK3.

Compound: CC(C)Cc1ccc(C(C)C(=O)O)cc1 (stereo not shown) [ibuprofen]
nociceptive scores versus vehicle [1]: significantly decrease nociceptive scores | nociceptive threshold versus vehicle [1]: significantly increased | haemorrhage scores [2]: no significant change was observed regarding haemorrhage scores | nociceptive scores versus vehicle [2]: significant decrease of nociceptive scores | nociceptive threshold versus vehicle [2]: significantly increased | urinary bladder wall thickness [2]: a significant decrease was observed in urinary bladder wall thickness

Compound: GRKKRRQRRR (Description of sequence Peptide L-TAT (see Table 1))
entry into cells (TC-3 cell cultures): efficiently and rapidly (less than five minutes) entered cells

Compound: GRKKRRQRRRPPRPKRPTTLNLFPQVPRSQD (Description of sequence L-TAT-IB1 (s) (see Table 1)) [L-TAT-IB1(s)]
long term protection from IL-1 induced cell death (TC-3 cells; 15 days IL-1): not | formation of the AP-1 DNA binding complex [3]: decrease the formation of the AP-1 DNA binding complex in the presence of TNF-alpha | entry into cells (TC-3 cell cultures): efficiently and rapidly (less than five minutes) entered cells

Compound: IPSPSVEEPHKHRPTTLRLTTLGAQDS (Description of sequence Peptide IB2-long (see Table 1))
efficiency in binding JNK versus c-Jun or ATF2 (JNK): approximately 100 fold

Compound: PGTGCGDTYRPKRPTTLNLFPQVPRSQDT (Description of sequence peptide IB1-long (see Table 1))
efficiency in binding JNK versus c-Jun or ATF2 (JNK): approximately 100 fold

Compound: RRRQRRKKRG (D-amino acids; Description of sequence Peptide D-TAT (see Table 1))
entry into cells (TC-3 cell cultures): efficiently and rapidly (less than five minutes) entered cells

peptide dose with nearly complete inhibition of c-Jun, ATF2 and Elk1 phosphorylation by JNKs [4]: 2.5 µM
Compound: TAT-IB(s): TAT-IB1(s) peptide of Examples 5 to 7, there the L-TAT-IB1(s) peptide (GRKKRRQRRRPPRPKRPTTLNLFPQVPRSQD)
inhibition of JNK3 phosphorylation of Elk1 (JNK3): absence of TAT-IB(s) inhibition of JNK3 phosphorylation of Elk1 | phosphorylation of c-Jun by activated JNKs [5]: efficiently prevented phosphorylation of c-Jun by activated JNKs | activation of c-Jun in cells transfected with JNK3 [6]: inhibited JNK2 mediated activation of c-Jun | activation of c-Jun following MKK4 and MKK7 mediated activation of JNK ([6]; luciferase 16 hours later): blocked activation of c-Jun following MKK4 and MKK7 mediated activation of JNK

Compound: TDQSRPVQPFLNLTTPRKPRYTDPPRRRQRRKKRG ([dT][dD][dQ][dS][dR][dP][dV][dQ][dP][dF][dL][dN][dL][dT][dT][dP][dR][dK][dP][dR][dY][dT][dD][dP][dP][dR][dR][dR][dQ][dR][dR][dK][dK][dR]G) [D-TAT-IB1]
IL-1 induced apoptosis (TC-3 cells; two days IL-1): decreased IL-1 induced apoptosis to a similar extent as L-TAT-IB peptides

Reference: patent US20170137481A1, “Use of Cell-Permeable Peptide Inhibitors of the JNK Signal Transduction Pathway for the Treatment of Various Diseases” (Xigen Inflammation Ltd., priority 2014, published 2017)
